# Measurements taken from patent publication US20040185073A1, “Cosmetic compositions containing salts of malonic acid” (Unilever Home & Personal Care USA, Division of Conopco, Inc., priority 2003, published 2004).
# Tested on: Porcine Skin
# Assay: Porcine Skin Test (thermo-mechanical analyzer deflection, 20 gram load)
# Protocol: A feature of the present invention is that malonate salts are those which impart to the composition a positive Flexibility Value of at least 1, preferably at least 1.1 relative to water in the Porcine Skin Test. This test utilizes a thermo-mechanical analyzer with a 20 gram load to a one-cm diameter disc of Porcine Skin from which the immediate deflection is recorded in mm. Water serves as a control. Skin samples are measured before and 24 hours after one, two and three treatments. These treatments consist of 150 μl of each composition being applied to the skin for five minutes, then removed without rinsing. Thereafter, drying is performed at 21° C. and less than 100% relative humidity. Data transformation consists of determining the ratio of the deflection value after three applications of the test composition to the deflection value of the water standard. The ratio is defined as the Flexibility Value.
# A variety of carboxylic acid salts were evaluated to determine their response in a Porcine Skin Test. A Perkin-Elmer Thermo-Mechanical Analyzer, Model TMS-1, was operated with a 20 gram load placed to a center of a one-cm diameter disc of Porcine Skin. Deflection of the skin in mm was immediately recorded. The sample size was six pieces of skin per treatment. Water was used as a control. […] Each was measured dry before and 24 hours after one, two and three treatments. […]
substance,measurement,setting,value
Dimethylethanolammonium Malonate [Malonate Salt],Flexibility Value,"test material solution, 150 μl applied 5 minutes, ratio of deflection after three applications to deflection of water standard (water = 1.00)",1.36
same,effect on skin flexibility (in words),"test material solutions, versus water",significantly more flexible
